Assay [1] concerns the target T1, mouse KV1.3 (mKV1.3) channels stably expressed in L929 cells (Mus musculus, UniProt P16390).
T1 construct: expressed in transfected cells
Kind of assay: Inhibition of mKV1.3 currents, whole-cell patch clamp. It counts as cell-based. The note with it: room temperature, each data point mean of 3–5 determinations. As for the experimental part:
(§1) L929 mouse fibroblast cells stably expressing mouse KV1.1 or mouse KV1.3 channels were kind gifts from Dr. George Chandy (University of California, Irvine). The cells were maintained in DMEM medium (Invitrogen, Carlsbad, CA, USA) supplemented with 10 IU/ml penicillin, 0.1 mg/ml streptomycin, 2 mM L-glutamine, 10% heat-inactivated fetal bovine serum, and 0.5 mg/ml G418 (EMD Chemicals, Gibbstown, NJ, USA). Freshly prepared buffy coats were purchased from the Gulf Coast Regional Blood Center (Houston, TX, USA) under a Baylor College of Medicine Institutional Review Board-approved protocol. Mononuclear cells were isolated from the buffy coats using Histopaque-1077 gradients (Sigma, St Louis, MI, USA) and used immediately or stored frozen in liquid nitrogen.
(§2) Experiments were conducted at room temperature using the whole-cell patch-clamp technique, as described previously. […] The bath solution contained (in mM): 160 NaCl, 4.5 KCl, 2 CaCl2, 1 MgCl2, 10 HEPES, pH 7.2, 300 mOsm. KV channel currents were elicited every 30 s by 200-ms depolarizing pulses from a holding potential of –80 mV to 40 mV. K d values and Hill coefficients were determined by fitting the Hill equation to the reduction of peak current measured at 40 mV.

For assay [2], the target named is T2, mouse KV1.1 (mKV1.1) channels stably expressed in L929 cells (Mus musculus, UniProt P16388).
T2 construct: expressed in transfected cells
T2 sequence (P16388 whole entry): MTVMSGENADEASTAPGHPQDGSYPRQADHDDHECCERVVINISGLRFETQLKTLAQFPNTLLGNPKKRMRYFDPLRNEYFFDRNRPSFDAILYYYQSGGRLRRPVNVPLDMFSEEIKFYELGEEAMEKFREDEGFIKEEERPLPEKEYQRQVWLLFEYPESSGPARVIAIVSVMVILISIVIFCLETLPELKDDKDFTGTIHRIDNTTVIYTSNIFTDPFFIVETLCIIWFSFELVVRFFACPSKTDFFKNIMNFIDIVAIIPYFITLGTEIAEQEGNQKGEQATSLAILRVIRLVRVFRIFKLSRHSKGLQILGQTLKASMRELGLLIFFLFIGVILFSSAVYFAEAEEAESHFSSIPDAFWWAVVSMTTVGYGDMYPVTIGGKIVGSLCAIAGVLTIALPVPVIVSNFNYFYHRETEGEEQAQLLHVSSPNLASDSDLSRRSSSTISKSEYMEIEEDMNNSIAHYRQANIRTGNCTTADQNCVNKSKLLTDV
The assay is described as follows: Inhibition of mKV1.1 currents, whole-cell patch clamp. It counts as cell-based. The note with it: room temperature, 200-ms pulses from -80 mV to 40 mV every 30 s, Hill fit to reduction of peak current at 40 mV, each data point mean of 3–5 determinations. As for the experimental part: as §1, §2

In another assay the test system is human T lymphocytes. Kind of assay: Proliferation of T lymphocytes, [3H] thymidine incorporation. The note with it: freshly-isolated human T lymphocytes, 60 ng/ml anti-CD3 antibody (OKT3), pre-incubated 45 min at 37°C, cultured 72 h, [3H] thymidine last 16–18 h; three independent experiments with cells from different donors. It counts as cell-based. On the procedure:
as §1
Mononuclear cells (10^6/ml) were plated into 96-well microplates and pre-incubated with peptidic KV1.3 blockers for 45 min at 37°C in RPMI medium (Invitrogen) supplemented with 100 IU/ml penicillin, 0.1 mg/ml streptomycin, 2 mM L-glutamine, 1 mM sodium pyruvate, 1% non-essential amino acids, 1% RPMI vitamins, […] β-mercaptoethanol, and 1% heat-inactivated fetal bovine serum. […] [^3H] thymidine incorporation into the DNA of proliferating cells was measured using a β-scintillation counter (Beckman Coulter, Brea, CA, USA).
Background: Uptake of a labelled nucleoside into DNA is a usual measure of proliferation.

Another assay deals with KV1.3. The note with it: cited from earlier work; for potency of native toxin on KV1.3: native toxins, ref [31]; for block of KV1.3 channels: ref [22], [30], [31]. The text has this: Voltage-gated potassium (KV) channels are expressed in a wide range of cell types and tissues where they play key roles in physiological processes such as cell excitability, muscle contraction, and regulation of cardiac function. KV channels are composed of four α subunits that together form a functional channel. There are […] subfamilies of KV channels, with KV1.3 being one of eight subtypes in the KV1.x subfamily. […] We therefore measured the ability of rAgTx2 and rMgTx to block mouse KV1.3 (mKV1.3) and mouse KV1.1 (mKV1.1) channels stably expressed in L929 cells. […] The recombinant rAgTx2 and rMgTx inhibited mKV1.3 with simi ... || KV channels have diverse physiological functions; they play important roles in cell excitability, muscle contraction, regulation of neuronal and cardiac electrical functions, and propagation of action potentials. […] This has led to the hypothesis that compounds that selectively target KV1.3 channels could be used to treat autoimmune diseases. Consistent with this idea, ... || (+ 1 further places)

Assay [3] concerns acid sensing ion channel 1a. The note with it: ref [49]; cited from earlier work. From the text:
Recombinant production is the most cost-effective method for producing disulfide-rich peptides. The most common host for heterologous expression of venom peptides is E. coli, [47] but this often necessitates oxidative refolding of the peptides as the redox environment of the E. coli cytoplasm is not favorable for disulfide-bond formation. Higher yields of correctly folded toxin can often be obtained by exporting the peptides into periplasm of E. coli, where the cellular machinery for disulfide-bond formation is located [17]–[19]; however, the overall yield of recombi ...

The subject of a further assay is KV1.1. The note with it: ref [22], [30], [31]; cited from earlier work. The text has this:
We therefore measured the ability of rAgTx2 and rMgTx to block mouse KV1.3 (mKV1.3) and mouse KV1.1 (mKV1.1) channels stably expressed in L929 cells. […] The recombinant rAgTx2 and rMgTx inhibited mKV1.3 with simi ...

For the next assay, the system named is T lymphocytes. The note with it: native toxins; ref [33], [34]; read-out: IC50 range previously described, T lymphocyte proliferation; cited from earlier work. On the procedure:
We next tested the ability of each recombinant peptides to block the proliferation of freshly-isolated human T lymphocytes, which are sensitive to KV1.3 channel blockers. […] These concentrations are within the range previously described for MgTx (∼5 nM) and AgTx2 (>5 nM), [34]. Thus the biological activities of rAgTx2 and rMgTx produced in P.pastoris are similar to the native toxins.

A further assay concerns human KV1.3 channel. The note with it: by blocking the central ion-conducting pore; ref [21], [22], [43]; cited from earlier work. The text has this: Some α-KTxs are of significant interest because they potently block the human KV1.3 channel. […] However, despite their similar 3D fold and high sequence homology, the affinity of α-KTx toxins for KV1.3 varies over six orders of magnitude from picomolar to micromolar. Moreover, many of these toxins inhibit a number of different subtypes KV channels with high affinity, an undesirable attribute for peptides being considered for therapeutic use due to the ...

[4] abbreviates: 200-ms pulses from -80 mV to 40 mV every 30 s, Hill fit to reduction of peak current at 40 mV.

Bridge positions count the residues as written; N and C are the ends. Ends that are not written are not given here.

T1 sequence (P16390 whole entry): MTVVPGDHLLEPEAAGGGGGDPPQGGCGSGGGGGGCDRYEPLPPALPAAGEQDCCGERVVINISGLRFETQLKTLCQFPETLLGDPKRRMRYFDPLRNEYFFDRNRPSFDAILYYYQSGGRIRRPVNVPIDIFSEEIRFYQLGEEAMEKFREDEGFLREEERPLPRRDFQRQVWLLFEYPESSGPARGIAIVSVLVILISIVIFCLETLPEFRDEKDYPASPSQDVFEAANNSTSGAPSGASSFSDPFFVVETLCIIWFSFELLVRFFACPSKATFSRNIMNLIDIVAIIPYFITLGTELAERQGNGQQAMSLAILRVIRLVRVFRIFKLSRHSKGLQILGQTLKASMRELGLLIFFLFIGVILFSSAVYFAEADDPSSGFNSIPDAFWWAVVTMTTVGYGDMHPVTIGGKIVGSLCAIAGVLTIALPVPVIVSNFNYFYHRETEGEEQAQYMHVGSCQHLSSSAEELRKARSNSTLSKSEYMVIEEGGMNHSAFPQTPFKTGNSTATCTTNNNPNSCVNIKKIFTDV

Consider `CC[C@H](C)[C@@H]1NC(=O)[C@@H]2CSSC[C@@H]3NC(=O)[C@H](CCCCN)NC(=O)[C@H](CCCNC(=N)N)NC(=O)[C@H](CC(N)=O)NC(=O)[C@H](CCSC)NC(=O)[C@H](CSSC[C@H](NC(=O)[C@H](CO)NC(=O)[C@@H](NC(=O)[C@H](CC(N)=O)NC(=O)[C@@H](NC(=O)[C@@H]4CCCN4C(=O)[C@@H](NC(=O)CNC(=O)[C@H](Cc4c[nH]cn4)NC(=O)[C@H](Cc4c[nH]cn4)NC(=O)[C@H](Cc4c[nH]cn4)NC(=O)[C@H](Cc4c[nH]cn4)NC(=O)[C@H](Cc4c[nH]cn4)NC(=O)[C@H](Cc4c[nH]cn4)NC(=O)[C@H](Cc4ccccc4)NC(=O)[C@@H](N)CCC(=O)O)C(C)C)[C@@H](C)CC)C(C)C)C(=O)N[C@@H]([C@@H](C)O)C(=O)NCC(=O)N[C@@H](CO)C(=O)N4CCC[C@H]4C(=O)N[C@@H](CCC(N)=O)C(=O)N2)NC(=O)[C@H](CCCCN)NC(=O)CNC(=O)[C@H](Cc2ccccc2)NC(=O)[C@H](CCCNC(=N)N)NC(=O)[C@H](CCSC)NC(=O)CNC(=O)[C@H](C)NC(=O)[C@H](CC(=O)O)NC(=O)[C@H](CCCCN)NC(=O)[C@H](CSSC[C@@H](C(=O)N[C@H](C(=O)N2CCC[C@H]2C(=O)N[C@@H](CCCCN)C(=O)O)[C@@H](C)O)NC(=O)[C@H](Cc2c[nH]cn2)NC3=O)NC(=O)[C@@H]2CCCN2C(=O)[C@H](CCCCN)NC1=O` [rAgTx2, recombinant agitoxin-2], for which the IC50 was 0.201 ± 0.039 nM in assay [1] (setting [4]), 0.144 ± 0.03 nM in assay [2] and approximately 40 nM in the assay with human T lymphocytes.
For “BmKTX: native peptide, parent of ADWX-1 (VGINVKCKHSGQCLKPCKDAGMRFGKCINGKCDCTPK; ends and bridges not checked; cysteine pairing not given here; UniProt Q9NII7 23-59, looked up)”, the IC50 in the assay with KV1.3 (ref [44]) was 0.15 nM.
The molecule “EFHHHHHHTIINVKCTSPKQCLPPCKAQFGQSAGAACMNGKCKCYPH (disulfide 15-37, 21-42, 25-44) [rMgTx-K28A]” yielded an IC50 in assay [1] (K28A mutant, Hill fit to peak current at 40 mV) of 216 ± 24 nM.
For the molecule “EFHHHHHHTIINVKCTSPKQCLPPCKAQFGQSAGAKCMNGKCKCYPH (disulfide 15-37, 21-42, 25-44) [rMgTx, recombinant margatoxin]”, the IC50 in assay [1] (setting [4]) was 0.097 ± 0.003 nM; in assay [2], 0.396 ± 0.041 nM; with human T lymphocytes it was approximately 6 nM.
For the molecule “PcTx1 (EDCIPKWKGCVNRHGDCCEGLECWKRRRSFEVCVPKTPKT; ends and bridges not checked; cysteine pairing not given here; UniProt P60514 1-40, looked up)”, the “block of acid sensing ion channel 1a” value in assay [3] is reported as “potent blocker”.
Consider agitoxin-2 [AgTx2], for which, in the assay on KV1.3, the “potency of native toxin on KV1.3” value is 200 pM and the “block of KV1.3 channels” value is given as “picomolar concentrations”. Also, in the assay with KV1.1, the “block of KV1.1 channels” value is “picomolar concentrations”. Besides, the IC50 in the assay with T lymphocytes was more than 5 nM. In addition, the “inhibition of KV1.3” value in the assay with human KV1.3 channel was “potently inhibit KV1.3”.
Regarding “margatoxin (TIINVKCTSPKQCLPPCKAQFGQSAGAKCMNGKCKCYPH; UniProt P40755 1-39, looked up) [MgTx]”, in the assay with KV1.3, the “potency of native toxin on KV1.3” value is given as 30−100 pM and the “block of KV1.3 channels” value is reported as “picomolar concentrations”. Further, the “block of KV1.1 channels” value in the assay on KV1.1 is “picomolar concentrations”. Also, the IC50 in the assay on T lymphocytes was approximately 5 nM. In addition, in the assay on human KV1.3 channel, the “inhibition of KV1.3” value was “potently inhibit KV1.3”.

The values are drawn from article PMC3530466, “Recombinant Expression of Margatoxin and Agitoxin-2 in Pichia pastoris: An Efficient Method for Production of KV1.3 Channel Blockers” (PLoS ONE, 2012).
